Experiment: Solubility of barbituric acid in CD3CN, free and with bisamidopyridine dendrimers
Assay type: physicochemical
Excerpt: Chemical shift changers for the complexed NH moieties, even in this competing solvent, corresponded to ca. 0.1 ppm for both generation dendrimers.

O=C1CC(=O)NC(=O)N1 [barbituric acid]
solubility in CD3CN (free): sparingly soluble
solubility in CD3CN in the presence of the bisamidopyridine dendrimers (with bisamidopyridine dendrimers): freely soluble to the limit of complementary complexation
